# Experimental data as given in patent US8865894B2, “Oxazolidin-2-one compounds and uses thereof” (Novartis AG, priority 2012, dated 2014).
# pIC50: −log10 of the molar value.
# Tested on: not given
# Experiment: not given
# Conditions: not given
row,SMILES,melting point
1,"C[C@H]1OC(=O)N(c2cc(-c3cnc(N)nc3C(F)(F)F)nc(N3CCOC[C@@H]3C)n2)[C@H]1CO [Example 10, (4S,5R)-3-[2′-Amino-2-((S)-3-methyl-morpholin-4-yl)-4′-trifluoromethyl-[4,5′]bipyrimidinyl-6-yl]-4-hydroxymethyl-5-methyl-oxazolidin-2-one]",217.7 °C

# Target: T1, human PI3Kδ (Homo sapiens, UniProt O00329)
# T1 construct: made in house
# T1 sequence (O00329 2-1044 limits assumed): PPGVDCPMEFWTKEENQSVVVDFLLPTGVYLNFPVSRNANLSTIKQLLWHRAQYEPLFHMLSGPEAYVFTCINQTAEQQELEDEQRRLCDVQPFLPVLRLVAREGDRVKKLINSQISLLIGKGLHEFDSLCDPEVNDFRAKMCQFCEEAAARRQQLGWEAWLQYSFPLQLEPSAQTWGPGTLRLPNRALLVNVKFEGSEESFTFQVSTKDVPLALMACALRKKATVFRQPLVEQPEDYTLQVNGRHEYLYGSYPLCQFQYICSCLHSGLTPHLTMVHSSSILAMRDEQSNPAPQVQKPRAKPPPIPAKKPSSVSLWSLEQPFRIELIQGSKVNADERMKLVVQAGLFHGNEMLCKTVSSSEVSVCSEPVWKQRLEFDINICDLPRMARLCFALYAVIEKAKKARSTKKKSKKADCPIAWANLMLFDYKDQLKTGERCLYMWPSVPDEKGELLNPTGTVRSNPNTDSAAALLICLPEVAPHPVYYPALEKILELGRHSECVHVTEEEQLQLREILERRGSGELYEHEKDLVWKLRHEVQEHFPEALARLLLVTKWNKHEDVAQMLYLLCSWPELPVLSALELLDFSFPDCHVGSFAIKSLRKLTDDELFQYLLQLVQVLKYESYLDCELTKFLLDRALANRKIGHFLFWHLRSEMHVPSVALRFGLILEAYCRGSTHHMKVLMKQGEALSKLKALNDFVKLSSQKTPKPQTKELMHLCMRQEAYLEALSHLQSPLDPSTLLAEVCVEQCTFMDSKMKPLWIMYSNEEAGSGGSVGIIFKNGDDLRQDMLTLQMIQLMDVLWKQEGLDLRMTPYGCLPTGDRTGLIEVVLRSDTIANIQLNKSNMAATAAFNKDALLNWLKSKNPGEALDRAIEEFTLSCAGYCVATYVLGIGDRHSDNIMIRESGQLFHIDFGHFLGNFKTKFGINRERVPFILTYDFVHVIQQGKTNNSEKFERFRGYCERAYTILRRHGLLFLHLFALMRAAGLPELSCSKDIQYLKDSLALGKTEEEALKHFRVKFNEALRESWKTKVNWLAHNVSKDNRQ
# Experiment: Biochemical PI3Kdelta (TR-FRET Adapta Universal Kinase Assay)
# Conditions: mean of n measurements, read-out: PIK3d/ IC50
# Description: Test compounds were dissolved in DMSO (10 mM) and transferred into 1.4 mL flat bottom or V-shaped Matrix tubes carrying a unique 2D matrix chip by individual Novartis compound hubs. The numbers of these chips were distinctively linked to Novartis Pharma Numbers. The stock solutions were stored at −20° C. if not used immediately. For the test procedure the vials were defrosted and identified by a scanner whereby a working sheet was generated that guided the subsequent working steps.
# Compounds were either manually diluted in DMSO for individual experiments (96 wells enabling 10 cpds at 8 (single points) concentrations) as described in or prepared as described below if tested for profiling in 384-wells. This format enabled the assay of maximally 40 individual test compounds at 8 concentrations (single points) including 4 reference compounds. The dilution protocol included the production of “pre-dilution plates”, “master plates” and “assay plates”.
# 96 polypropylene well plates were used as pre-dilution plates. A total of 4 pre-dilution plates were prepared including 10 test compounds each on the plate positions A1-A10, one standard compound at A11 and one DMSO control at A12. Programs have been written to run these pipetting steps on the HamiltonSTAR robots.
# Identical “assay plates” were then prepared by pipetting 50 nL each of compound dilutions of the “master plates” into 384-well “assay plates”. The compounds were mixed with 4.5 μL of assays components plus 4.5 μL enzyme corresponding to a 1:181 dilution enabling the final concentration of 10, 3.0, 1.0, 0.3, 0.1, 0.03, 0.01 and 0.003 μM, respectively. The preparation of the “master plates” was handled by the Matrix PlateMate Plus robot and replication of “assay plates” by the HummingBird robot.
# Catalytically active human PI3Kα, PI3Kβ, PI3Kδ, and mTOR were cloned, expressed and purified as described (Maira S M, Stauffer F, Brueggen J, Furet P, Schnell C, Fritsch C, Brachmann S, Chène P, de Pover A, Schoemaker K, Fabbro D, Gabriel D, Simonen M, Murphy L, Finan P, Sellers W, García-Echeverría C (2008), Mol Cancer Ther. 7:1851-63 and Maira S M, Pecchi S, Brueggen J, Huh K, Schnell C, Fritsch C, Nagel T, Wiesmann M, Brachmann S, Dorsch M, Chène P, Schoemaker K, De Pover A, Menezes D, Fabbro D, Sellers W, García-Echeverría C, Voliva C F (2011), Mol. Cancer Ther. accepted).
# The TR-FRET Adapta™ Universal Kinase Assay Kit was purchased from Invitrogen Corporation (Carlsbad/CA, USA) (Cat. No. PV5099). The kit contains the following reagents: Adapta Eu-anti-ADP Antibody (Europium labeled anti-ADP antibody in HEPES buffered saline, Cat. No. PV5097), Alexa Fluor® 647-labeled ADP tracer (Alexa Fluor® 647-labeled ADP tracer in HEPES buffered saline, Cat. No. PV5098), proprietary TR-FRET dilution buffer pH 7.5 (Cat. No. PV3574).
# PIK3CD substrate Phosphatidylinositol was obtained from Invitrogen (vesicules consisting of 2 mM PI in 50 mM HEPES pH7.5; Cat. No. PV5371). PIK3CG substrate Phosphatidylinositol-4,5-bisphosphate (PIP(4,5)2 was obtained from Invitrogen (PIP2:PS large unilamellar vesicules consisting of 1 mM PIP2: 19 mM PS in 50 mM HEPES pH7.5, 3 mM MgCl2, 1 mM EGTA; Cat. No. PV5100).
# Time-Resolved Fluorescence Resonance Energy Transfer (TR-FRET) is a technology based on energy transfer between two adjacent dyes, from an excited electron in one dye (the donor) to an electron of an adjacent dye (the acceptor) through resonance, then released as a photon. This energy transfer is detected by an increase in the fluorescence emission of the acceptor, and a decrease in the fluorescence emission of the donor. TR-FRET assays for protein kinases use a long-lifetime lanthanide Terbium or Europium chelates as the donor species which overcome interference from compound autofluorescence or light scatter from precipitated compounds, by introducing a delay after excitation by a flashlamp excitation source. Results are often expressed as a ratio of the intensities of the acceptor and donor fluorophores.
row,SMILES,pIC50
1,"C[C@H]1OC(=O)N(c2cc(-c3cnc(N)nc3C(F)(F)F)nc(N3CCOC[C@@H]3C)n2)[C@H]1CO [Example 10, (4S,5R)-3-[2′-Amino-2-((S)-3-methyl-morpholin-4-yl)-4′-trifluoromethyl-[4,5′]bipyrimidinyl-6-yl]-4-hydroxymethyl-5-methyl-oxazolidin-2-one]",7.92
2,"Nc1ncc(-c2cc(N3C[C@H](CO)OC3=O)nc(N3CCOCC3)n2)c(C(F)(F)F)n1 [Example 20, (R)-3-(2′-Amino-2-morpholin-4-yl-4′-trifluoromethyl-[4,5′]bipyrimidinyl-6-yl)-5-hydroxymethyl-oxazolidin-2-one]",7.64
3,"C[C@H]1[C@@H](CO)OC(=O)N1c1cc(-c2cnc(N)nc2C(F)(F)F)nc(N2CCOCC2)n1 [Example 19, (4S,5S)-3-(2′-Amino-2-morpholin-4-yl-4′-trifluoromethyl-[4,5′]bipyrimidinyl-6-yl)-5-hydroxymethyl-4-methyl-oxazolidin-2-one]",8.05
4,"[2H]C1([2H])OC([2H])([2H])C([2H])([2H])N(c2nc(-c3cnc(N)nc3C(F)(F)F)cc(N3C(=O)OC[C@@H]3C)n2)C1([2H])[2H] [Example 17, (S)-3-(2′-amino-2-D8-morpholino-4′-(trifluoromethyl)-[4,5′-bipyrimidin]-6-yl)-4-methyloxazolidin-2-one]",8.10
5,"Nc1ncc(-c2cc(N3C(=O)O[C@H]4COC[C@H]43)nc(N3CCOCC3)n2)c(C(F)(F)F)n1 [Example 21, (3aR,6aR)-3-(2′-amino-2-morpholino-4′-(trifluoromethyl)-[4,5′-bipyrimidin]-6-yl)-tetrahydrofuro[3,4-d]oxazol-2(3H)-one]",7.77
6,"C[C@H]1[C@H](CO)OC(=O)N1c1cc(-c2cnc(N)nc2C(F)(F)F)nc(N2CCOCC2)n1 [Example 15, (4S,5R)-3-(2′-Amino-2-morpholin-4-yl-4′-trifluoromethyl-[4,5′]bipyrimidinyl-6-yl)-5-hydroxymethyl-4-methyl-oxazolidin-2-one]",7.82
